Measured values published in patent US20140018376A1, “Use of 1H-Quinazoline-2,4-Diones” (priority 2009, published 2014).

tested on: mouse; test: Oral activity in vivo: audiogenic mouse test and/or MES test; conditions: oral administration
Procedure: The oral bioavailability was tested using the audiogenic mouse test (Audiogenic seizures, R. L. Collins; Chapter 14, pages: 347-372. In: Experimental Models of Epilepsy; By: Pupura, Penry, Tower, Woodbury, Walter, Raven Press, New York, 1972. Standard Book Number: 0-911216-26-X) and/or the MES test.

| SMILES | In vivo orally active |
| --- | --- |
| CC(C)n1nccc1-c1cc2c(=O)n(NS(C)(=O)=O)c(=O)[nH]c2cc1C(F)F [Compound C-10, N-[7-Difluoromethyl-6-(2-isopropyl-2H-pyrazol-3-yl)-2,4-dioxo-1,4-dihydro-2H-quinazolin-3-yl]-methanesulfonamide] | Yes |
| COCCn1nccc1-c1cc2c(=O)n(NS(C)(=O)=O)c(=O)[nH]c2cc1C(C)C [Compound C-1, N-{7-Isopropyl-6-[2-(2-methoxy-ethyl)-2H-pyrazol-3-yl]-2,4-dioxo-1,4-dihydro-2H-quinazolin-3-yl}-methanesulfonamide] | yes |
| CCc1cc2[nH]c(=O)n(NS(C)(=O)=O)c(=O)c2cc1-c1ccnn1CC [Compound C-12, N-[7-Ethyl-6-(2-ethyl-2H-pyrazol-3-yl)-2,4-dioxo-1,4-dihydro-2H-quinazolin-3-yl]-methanesulfonamide] | Yes |
| Cn1nccc1-c1cc2c(=O)n(NS(C)(=O)=O)c(=O)[nH]c2cc1C(C)(F)F [Compound C-15, N-[7-(1,1-difluoro-ethyl)-6-(2-methyl-2H-pyrazol-3-yl)-2,4-dioxo-1,4-dihydro-2H-quinazolin-3-yl]-methanesulfonamide] | Yes |
| COC(C)c1cc2c(=O)n(NS(C)(=O)=O)c(=O)[nH]c2cc1C(F)(F)F (stereo not drawn) [Compound A-2, N-[6-(1-Methoxy-ethyl)-2,4-dioxo-7-trifluoromethyl-1,4-dihydro-2H-quinazolin-3-yl]-methanesulfonamide] | Yes |
| CS(=O)(=O)Nn1c(=O)[nH]c2cc(C(F)(F)F)c(C3CCCO3)cc2c1=O (stereo not drawn) [Compound B-2, N-[2,4-Dioxo-6-(tetrahydro-furan-2-yl)-7-trifluoromethyl-1,4-dihydro-2H-quinazolin-3-yl]-methanesulfonamide] | Yes |
| CCC(O)c1cc2c(=O)n(NS(C)(=O)=O)c(=O)[nH]c2cc1C(F)(F)F (stereo not drawn) [Compound A-3, N-[6-(1-Hydroxy-propyl)-2,4-dioxo-7-trifluoromethyl-1,4-dihydro-2H-quinazolin-3-yl]-methanesulfonamide] | Yes |
| CC(F)c1cc2[nH]c(=O)n(NS(C)(=O)=O)c(=O)c2cc1-c1ccnn1C(C)C (stereo not drawn) [Compound C-17, N-[7-(1-fluoro-ethyl)-6-(2-isopropyl-2H-pyrazol-3-yl)-2,4-dioxo-1,4-dihydro-2H-quinazolin-3-yl]-methanesulfonamide] | Yes |
| COCCC(O)c1cc2c(=O)n(NS(C)(=O)=O)c(=O)[nH]c2cc1C(F)(F)F (stereo not drawn) [Compound A-18, N-[6-(1-Hydroxy-3-methoxy-propyl)-2,4-dioxo-7-trifluoromethyl-1,4-dihydro-2H-quinazolin-3-yl]-methanesulfonamide] | Yes |
| CCCOC(CC)c1cc2c(=O)n(NS(C)(=O)=O)c(=O)[nH]c2cc1C(F)(F)F (stereo not drawn) [Compound A-6, N-[2,4-Dioxo-6-(1-propoxy-propyl)-7-trifluoromethyl-1,4-dihydro-2H-quinazolin-3-yl]-methanesulfonamide] | Yes |
| CC(C)n1nccc1-c1cc2c(=O)n(NS(C)(=O)=O)c(=O)[nH]c2cc1CF [Compound C-3, N-[7-Fluoromethyl-6-(2-isopropyl-2H-pyrazol-3-yl)-2,4-dioxo-1,4-dihydro-2H-quinazolin-3-yl]-methanesulfonamide] | Yes |
| COCCn1nccc1-c1cc2c(=O)n(NS(C)(=O)=O)c(=O)[nH]c2cc1C(F)(F)F [Compound C-4, N-{6-[2-(2-Methoxy-ethyl)-2H-pyrazol-3-yl]-2,4-dioxo-7-trifluoromethyl-1,4-dihydro-2H-quinazolin-3-yl}-methanesulfonamide] | Yes |
| CC(C)c1cc2[nH]c(=O)n(NS(C)(=O)=O)c(=O)c2cc1-c1ccnn1C [Compound C-7, N-[7-Isopropyl-6-(2-methyl-2H-pyrazol-3-yl)-2,4-dioxo-1,4-dihydro-2H-quinazolin-3-yl]-methanesulfonamide] | Yes |
| CCc1cc2[nH]c(=O)n(NS(C)(=O)=O)c(=O)c2cc1-c1ccnn1C [Compound C-11, N-[7-Ethyl-6-(2-methyl-2H-pyrazol-3-yl)-2,4-dioxo-1,4-dihydro-2H-quinazolin-3-yl]-methanesulfonamide] | Yes |
| CC(C)c1cc2[nH]c(=O)n(NS(C)(=O)=O)c(=O)c2cc1-c1ccnn1C(C)C [Compound C-8, N-[7-Isopropyl-6-(2-isopropyl-2H-pyrazol-3-yl)-2,4-dioxo-1,4-dihydro-2H-quinazolin-3-yl]-methanesulfonamide] | yes |
| CCc1cc2[nH]c(=O)n(NS(C)(=O)=O)c(=O)c2cc1-c1ccnn1C(C)C [Compound C-6, N-[7-Ethyl-6-(2-isopropyl-2H-pyrazol-3-yl)-2,4-dioxo-1,4-dihydro-2H-quinazolin-3-yl]-methanesulfonamide] | Yes |
| Cn1nccc1-c1cc2c(=O)n(NS(C)(=O)=O)c(=O)[nH]c2cc1C(F)F [Compound C-9, N-[7-Difluoromethyl-6-(2-methyl-2H-pyrazol-3-yl)-2,4-dioxo-1,4-dihydro-2H-quinazolin-3-yl]-methanesulfonamide] | Yes |
| CCCC(O)c1cc2c(=O)n(NS(C)(=O)=O)c(=O)[nH]c2cc1C(F)(F)F (stereo not drawn) [Compound A-15, N-[6-(1-Hydroxy-butyl)-2,4-dioxo-7-trifluoromethyl-1,4-dihydro-2H-quinazolin-3-yl]-methanesulfonamide] | Yes |
| CS(=O)(=O)Nn1c(=O)[nH]c2cc(C(F)(F)F)c(-c3ccnn3O)cc2c1=O [Compound C-5, N-[6-(2-Hydroxy-2H-pyrazol-3-yl)-2,4-dioxo-7-trifluoromethyl-1,4-dihydro-2H-quinazolin-3-yl]-methanesulfonamide] | Yes |
| CC(O)c1cc2c(=O)n(NS(C)(=O)=O)c(=O)[nH]c2cc1C(F)(F)F (stereo not drawn) [Compound A-1, N-[6-(1-Hydroxy-ethyl)-2,4-dioxo-7-trifluoromethyl-1,4-dihydro-2H-quinazolin-3-yl]-methanesulfonamide] | Yes |
| CS(=O)(=O)Nn1c(=O)[nH]c2cc(C(F)(F)F)c(C3CCOC3)cc2c1=O (stereo not drawn) [Compound B-3, N-[2,4-Dioxo-6-(tetrahydro-furan-3-yl)-7-trifluoromethyl-1,4-dihydro-2H-quinazolin-3-yl]-methanesulfonamide] | Yes |
| CCOC(C)c1cc2c(=O)n(NS(C)(=O)=O)c(=O)[nH]c2cc1C(F)(F)F (stereo not drawn) [Compound A-5, N-[6-(1-Ethoxy-ethyl)-2,4-dioxo-7-trifluoromethyl-1,4-dihydro-2H-quinazolin-3-yl]-methanesulfonamide] | Yes |
| Cn1nncc1-c1cc2c(=O)n(NS(C)(=O)=O)c(=O)[nH]c2cc1C(F)(F)F [Comparative, N-(6-(1-methyl-1H-1,2,3-triazol-5-yl)-2,4-dioxo-7-trifluoromethyl-1,4-dihydro-2H-quinazolin-3-yl]-methanesulfonamide, reference compound] | No |
| Cn1nccc1-c1cc2c(=O)n(NS(C)(=O)=O)c(=O)[nH]c2cc1C(F)(F)F [Compound C-18, N-[6-(2-Methyl-2H-pyrazol-3-yl)-2,4-dioxo-7-trifluoromethyl-1,4-dihydro-2H-quinazolin-3-yl]-methanesulfonamide] | Yes |
| CC(OC1CCCC1)c1cc2c(=O)n(NS(C)(=O)=O)c(=O)[nH]c2cc1C(F)(F)F (stereo not drawn) [Compound A-14, N-[6-(1-Cyclopentyloxy-ethyl)-2,4-dioxo-7-trifluoromethyl-1,4-dihydro-2H-quinazolin-3-yl]-methanesulfonamide] | yes |
| CC(C)n1nccc1-c1cc2c(=O)n(NS(C)(=O)=O)c(=O)[nH]c2cc1C(F)(F)F [Compound C-2, N-[6-(2-Isopropyl-2H-pyrazol-3-yl)-2,4-dioxo-7-trifluoromethyl-1,4-dihydro-2H-quinazolin-3-yl]-methanesulfonamide] | Yes |
| CC(C)OC(C)c1cc2c(=O)n(NS(C)(=O)=O)c(=O)[nH]c2cc1C(F)(F)F (stereo not drawn) [Compound A-4, N-[6-(1-Isopropoxy-ethyl)-2,4-dioxo-7-trifluoromethyl-1,4-dihydro-2H-quinazolin-3-yl]-methanesulfonamide] | Yes |
| CC(C)n1nccc1-c1cc2c(=O)n(NS(C)(=O)=O)c(=O)[nH]c2cc1C(C)(F)F [Compound C-16, N-[7-(1,1-difluoro-ethyl)-6-(2-isopropyl-2H-pyrazol-3-yl)-2,4-dioxo-1,4-dihydro-2H-quinazolin-3-yl]-methanesulfonamide] | Yes |
| CCC(OC(C)C)c1cc2c(=O)n(NS(C)(=O)=O)c(=O)[nH]c2cc1C(F)(F)F (stereo not drawn) [Compound A-7, N-[6-(1-isopropoxy-propyl)-2,4-dioxo-7-trifluoromethyl-1,4-dihydro-2H-quinazolin-3-yl]-methanesulfonamide] | Yes |
| CCOC(CC)c1cc2c(=O)n(NS(C)(=O)=O)c(=O)[nH]c2cc1C(F)(F)F (stereo not drawn) [Compound A-13, N-[6-(1-Ethoxy-propyl)-2,4-dioxo-7-trifluoromethyl-1,4-dihydro-2H-quinazolin-3-yl]-methanesulfonamide] | Yes |
